Results reported in ChEMBL document CHEMBL4715719, “Synthesis and biological properties of polyamine modified flavonoids as hepatocellular carcinoma inhibitors” (Eur J Med Chem, 2016).
Active and inactive are the calls of the source. The rule behind the calls is not given here.

How the values were obtained:
HepG2 [1] = assay: Antiproliferative activity against human HepG2 cells assessed as inhibition of cell proliferation at 30 uM measured after 48 hrs by MTT assay relative to control; format: functional
[2] = Cytotoxicity against human QSG7701 cells assessed as inhibition of cell proliferation at 30 uM measured after 48 hrs by MTT assay relative to control; format: cell-based
SMMC-7721 [3] = assay: Antiproliferative activity against human […] cells assessed as inhibition of cell proliferation at 30 uM measured after 48 hrs by MTT assay relative to control; format: functional
HepG2 [4] = assay: Antiproliferative activity against human HepG2 cells assessed as inhibition of cell proliferation at 100 uM measured after 48 hrs by MTT assay relative to control; format: functional
[5] = Cytotoxicity against human QSG7701 cells assessed as inhibition of cell proliferation at 100 uM measured after 48 hrs by MTT assay relative to control; format: cell-based
SMMC-7721 [6] = assay: Antiproliferative activity against human […] cells assessed as inhibition of cell proliferation at 100 uM measured after 48 hrs by MTT assay relative to control; format: functional
H22 [7] = assay: Antimetastatic activity against mouse H22 cells implanted in Kunming mouse assessed as inhibition of metastasis at 100 mg/kg, iv administered for 7 consecutive days starting from day 11 post inoculation and measured after 18 days relative to control; format: functional; settings: 192 h, time 8 day
HepG2 [8] = assay: Induction of apoptosis in human HepG2 cells assessed as activation of caspase 3 at 80 uM measured after 48 hrs by immunofluorescence assay; format: functional, cell-based
HepG2 [9] = assay: Induction of apoptosis in human HepG2 cells assessed as activation of caspase 9 at 80 uM measured after 48 hrs by immunofluorescence assay; format: functional, cell-based
HepG2 [10] = assay: Induction of apoptosis in human HepG2 cells assessed as activation of caspase 8 at 80 uM measured after 48 hrs by immunofluorescence assay; format: functional, cell-based
[11] = Toxicity in Kunming mouse implanted with mouse H22 cells assessed as change in mouse body weight at 100 mg/kg, iv administered for 7 consecutive days starting from day 8 post inoculation and measured after 16 days (reference value: 21 %); format: organism-based; settings: in vivo, 192 h, time 8 day
HepG2 [12] = assay: Induction of mitochondrial membrane potential loss in human HepG2 cells at 80 uM after 48 hrs by Rh123 staining based assay; format: functional, cell-based
H22 [13] = assay: Antitumor activity against mouse H22 cells implanted in Kunming mouse assessed as reduction in tumor weight at 100 mg/kg, iv administered for 7 consecutive days starting from day 8 post inoculation and measured after 16 days (reference value: 2.15 +/- 0.51 g); format: functional; settings: time 8 day
HepG2 [14] = assay: Induction of ROS generation in human HepG2 cells at 80 uM after 48 hrs by DCFH-DA staining based assay; format: functional, cell-based
[15] = Toxicity in Kunming mouse implanted with mouse H22 cells assessed as mouse mortality at 100 mg/kg, iv administered for 7 consecutive days starting from day 8 post inoculation and measured after 16 days; format: organism-based; settings: in vivo, 192 h, time 8 day
[16] = Toxicity in Kunming mouse implanted with mouse H22 cells assessed as change in body weight at 100 mg/kg, iv administered for 7 consecutive days starting from day 11 post inoculation and measured after 18 days (reference value: 5.2 %); format: organism-based; settings: in vivo, 192 h, time 8 day
HepG2 [17] = assay: Induction of lysosomal impairment in human HepG2 cells at 80 uM after 48 hrs by Lyso-tracker Red staining based assay; format: functional, cell-based
H22 [18] = assay: Antitumor activity against mouse H22 cells implanted in Kunming mouse assessed as tumor growth inhibition at 100 mg/kg, iv administered for 7 consecutive days starting from day 8 post inoculation and measured after 16 days relative to control; format: functional; settings: 192 h, time 8 day, read-out: TGI
[19] = Toxicity in Kunming mouse implanted with mouse H22 cells assessed as change in body weight at 0.4 mg/kg, iv administered for 7 consecutive days starting from day 11 post inoculation and measured after 18 days (reference value: 5.2 %); format: organism-based; settings: in vivo, 192 h, time 8 day
HepG2 [20] = assay: Antiproliferative activity against human HepG2 cells assessed as inhibition of cell proliferation at 5 uM measured after 48 hrs by MTT assay relative to control; format: functional
[21] = Toxicity in Kunming mouse implanted with mouse H22 cells assessed as mouse mortality at 0.4 mg/kg, iv administered for 7 consecutive days starting from day 8 post inoculation and measured after 16 days; format: organism-based; settings: in vivo, 192 h, time 8 day
HepG2 [22] = assay: Antiproliferative activity against human HepG2 cells assessed as inhibition of cell proliferation at 1 uM measured after 48 hrs by MTT assay relative to control; format: functional
H22 [23] = assay: Antitumor activity against mouse H22 cells implanted in Kunming mouse assessed as tumor growth inhibition at 0.4 mg/kg, iv administered for 7 consecutive days starting from day 8 post inoculation and measured after 16 days relative to control; format: functional; settings: 192 h, time 8 day, read-out: TGI
SMMC-7721 [24] = assay: Antiproliferative activity against human […] cells assessed as inhibition of cell proliferation at 5 uM measured after 48 hrs by MTT assay relative to control; format: functional
H22 [25] = assay: Antitumor activity against mouse H22 cells implanted in Kunming mouse assessed as reduction in tumor weight at 0.4 mg/kg, iv administered for 7 consecutive days starting from day 8 post inoculation and measured after 16 days (reference value: 2.15 +/- 0.51 g); format: functional; settings: time 8 day
[26] = Cytotoxicity against human QSG7701 cells assessed as inhibition of cell proliferation at 1 uM measured after 48 hrs by MTT assay relative to control; format: cell-based
H22 [27] = assay: Antimetastatic activity against mouse H22 cells implanted in Kunming mouse assessed as inhibition of metastasis at 0.4 mg/kg, iv administered for 7 consecutive days starting from day 11 post inoculation and measured after 18 days relative to control; format: functional; settings: 192 h, time 8 day
SMMC-7721 [28] = assay: Antiproliferative activity against human […] cells assessed as inhibition of cell proliferation at 1 uM measured after 48 hrs by MTT assay relative to control; format: functional
[29] = Toxicity in Kunming mouse implanted with mouse H22 cells assessed as change in mouse body weight at 0.4 mg/kg, iv administered for 7 consecutive days starting from day 8 post inoculation and measured after 16 days (reference value: 21 %); format: organism-based; settings: in vivo, 192 h, time 8 day
[30] = Toxicity in iv dosed Kunming mouse assessed as maximum tolerated dose; format: organism-based; settings: in vivo
[31] = Cytotoxicity against human QSG7701 cells assessed as inhibition of cell proliferation at 5 uM measured after 48 hrs by MTT assay relative to control; format: cell-based
H22 [32] = assay: Antimetastatic activity against mouse H22 cells implanted in Kunming mouse assessed as number of metastatic focus at 0.4 mg/kg, iv administered for 7 consecutive days starting from day 11 post inoculation and measured after 18 days (reference value: 5.73 +/- 14.6); format: functional; settings: time 8 day
Mus musculus [33] = assay: Upregulation of phosphorylated JNK in Kunming mouse implanted with mouse H22 cells assessed as activation of p53 at 800 uM measured after 48 hrs by immunofluorescence analysis; format: functional
Mus musculus [34] = assay: Downregulation of Bcl-2 in Kunming mouse implanted with mouse H22 cells at 800 uM measured after 48 hrs by immunofluorescence analysis; format: functional
Mus musculus [35] = assay: Upregulation of phosphorylated p38 in Kunming mouse implanted with mouse H22 cells assessed as activation of p53 at 800 uM measured after 48 hrs by immunofluorescence analysis; format: functional

Row | SMILES | inhibition at 30 µM (HepG2 [1]) | inhibition at 48 h, 30 µM [2] | inhibition at 30 µM (SMMC-7721 [3]) | inhibition at 100 µM (HepG2 [4]) | inhibition at 48 h, 100 µM [5] | inhibition at 100 µM (SMMC-7721 [6]) | other results
1 | CCCCNCC(=O)NCc1cccc2c(=O)cc(-c3cccc4ccccc34)oc12 | 6% | 19.6% | 14.6% | 21.6% | 41.7% | 28.4% | 
2 | O=c1c(O)c(-c2ccc(O)c(O)c2)oc2cc(O)cc(O)c12 [QUERCETIN] | 33.2% | < 5% | 29.5% | 56.3% | 36% | 62.9% | inhibition in vivo at 100 mg/kg (H22 [7]): 34.1%; Activity (HepG2 [8]): Active; Activity (HepG2 [9]): Active; Activity (HepG2 [10]): Active; Activity [11]: 6.3%; Activity (HepG2 [12]): Active; Activity (H22 [13]): 1.3 g; Activity (HepG2 [14]): Active; Activity [15]: Non-Toxic; Activity [16]: 2.1%; Activity (HepG2 [17]): Active; inhibition in vivo at 100 mg/kg (H22 [18]): 39.7%
3 | NCCCCNCCCCNCC(=O)NCc1cccc2c(=O)cc(-c3cccc4ccccc34)oc12 | 62% | 46.7% | 70.2% | 75.9% | 74.4% | 85.5% | 
4 | NCCCCNCCCNCC(=O)NCc1cccc2c(=O)cc(-c3cccc4ccccc34)oc12 | < 5% | < 5% | 7.6% | 28.9% | 22.4% | 32.5% | 
5 | O=C1c2c(O)ccc(O)c2C(=O)c2c(NCCNCCO)ccc(NCCNCCO)c21 [MITOXANTRONE] |  |  |  |  |  |  | Activity [19]: -0.8%; inhibition at 5 µM (HepG2 [20]): 78.6%; Activity [21]: Non-Toxic; inhibition at 1 µM (HepG2 [22]): 41.2%; inhibition in vivo at 0.4 mg/kg (H22 [23]): 73.4%; inhibition at 5 µM (SMMC-7721 [24]): 62.2%; Activity (H22 [25]): 0.57 g; inhibition at 48 h, 1 µM [26]: 75.8%; inhibition in vivo at 0.4 mg/kg (H22 [27]): 49.2%; inhibition at 1 µM (SMMC-7721 [28]): 20.5%; Activity [29]: -6.6%; MTD [30]: 0.4 mg/kg; inhibition at 48 h, 5 µM [31]: 82.5%; Activity (H22 [32]): 29.1
6 | CC(=O)Oc1ccccc1C(=O)O |  |  |  |  |  |  | Activity (Mus musculus [33]): Active; Activity (Mus musculus [34]): Active; Activity (Mus musculus [35]): Active
7 | NCCCCNCC(=O)NCc1cccc2c(=O)cc(-c3cccc4ccccc34)oc12 | < 5% | < 5% | < 5% | 16.1% | 10.6% | 39.8% | 
8 | CN(C)CCNCC(=O)NCc1cccc2c(=O)cc(-c3cccc4ccccc34)oc12 | < 5% | < 5% | < 5% | 7.5% | 17.9% | 16.6% | 
